The source of these data is patent US20210163489A1, “PYRAZOLOPYRIMIDINE DERIVATIVES AND THE COMPOSITIONS AND METHODS OF TREATMENT REGARDING THE SAME” (NysnoBio Ireland DAC, priority 2016, published 2021).

Each structure is given as a SMILES string. “And” between values parts separate entries of the source, which are not always exact repeats. Equal values may be shown once.

In this assay the target is T1, Parkin ligase (Homo sapiens, UniProt O60260).
T1 construct: Enzyme: Parkin-His tagged 203 μM (10.5 mg/ml)
T1 sequence (O60260 1-465): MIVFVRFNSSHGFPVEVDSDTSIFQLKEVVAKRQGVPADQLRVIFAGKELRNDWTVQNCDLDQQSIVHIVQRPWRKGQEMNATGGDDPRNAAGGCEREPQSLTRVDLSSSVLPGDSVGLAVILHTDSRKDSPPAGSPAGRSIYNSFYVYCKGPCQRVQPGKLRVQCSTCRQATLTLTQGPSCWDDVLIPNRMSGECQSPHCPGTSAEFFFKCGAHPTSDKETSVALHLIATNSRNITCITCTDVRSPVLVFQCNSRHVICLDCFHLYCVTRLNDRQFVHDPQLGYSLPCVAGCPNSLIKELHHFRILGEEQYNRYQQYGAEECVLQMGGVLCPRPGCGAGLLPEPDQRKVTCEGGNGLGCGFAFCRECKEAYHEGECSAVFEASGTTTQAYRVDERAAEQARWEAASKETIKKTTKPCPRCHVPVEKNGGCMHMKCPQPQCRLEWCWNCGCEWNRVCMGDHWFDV
Kind of assay: Activity-based probe assay using an ubiquitin vinyl sulfone probe (TR-FRET). Format: biochemical. The conditions noted are these: activation of heat activated Parkin, HA-Ub-VS probe; read-out: Probe Assay EC50 (μM) [Example 2]. How it is done: An Ubiquitin vinyl sulfone probe can be used that irreversibly binds to the active site cysteine of Parkin ligase. Covalent attachment of the probe to the Parkin can be monitored by TR-FRET. Candidate activator compounds can be identified by increasing the activity of Parkin ligase due to an increase in TR-FRET signal. Screening for activating compounds can be distinguished from the controls as follows:
100% activation signal=Heat activated Parkin+100 nM control activator in DMSO. 0% activation signal=Heat activated Parkin+DMSO only. Parkin activators can be identified by an increase of the 0% activation signal TR-FRET signal.
• Assay Plate: White 384 well plate (Corning 3572) • Enzyme: Parkin-His tagged 203 μM (10.5 mg/ml) • Probe: Ubiquitin vinyl-sulfone (HA-Ub-VS Boston Biochem U-212) • DMSO: DMSO (Sigma cat # D4540-100ML) • Reaction Buffer: 50 mM HEPES (pH 8.5), 150 mM NaCl, 0.01% Tween 20, 0.1% BSA • Detection Buffer: 50 mM HEPES (pH 8.5), 150 mM NaCl, 0.01% Tween 20, 0.1% BSA, 800 mM KF • Detection Reagent A: 2.6 nM Anti-6HIS-Eu cryptate and 40 nM Anti-HA-XL665 in detection buffer • Eu cryptate: Anti-6HIS-Eu cryptate (CisBio 61HISKLA) • XL665: Anti-HA-XL665 (CisBio 610HAXLA) Enzyme Reaction (15 min Pre Incubation Parkin with Activator Only) • Parkin: 40 nM • HA-Ub-VS Probe: 70 nM • Activator/DMSO: 2× Activator/2% DMSO • Reaction time: 60 minutes • Temperature: 22° C. • Total volume: 10 μl reaction
• Take 10 μl of Enzyme Reaction above and add 10 μl detection Reagent A under the following conditions: • Reaction time: 60 minutes • Temperature: 22° C. • Total volume: 20 μl
Assay procedure (Using HP D-300 compound dispenser and Bravo for the operation):
1) Heat activate Parkin in reaction buffer (500 μl/1.5 ml tube: Eppendorf Thermomixer 5 minutes, 400 rpm at 58° C. and put on ice until needed). 2) Load assay plate wells with 4.8 μl 84.5 nM Parkin in reaction buffer by use of Bravo. 3) Deliver 0.2 μl 200× activator candidates in DMSO by use of HP D-300 compound dispenser. Highest 200× concentration=20 μm and then twofold dilutions. 4) Spin 1000 rpm, 2 minutes, at room temp. 5) Incubate plate for 15 minutes at room temp. 6) Add 5 μl 140 nM HA-Ub-VS Probe in reaction buffer by use of Bravo. 7) Spin 1000 rpm, 2 minutes, at room temp. 8) Incubate plate for 60 minutes at room temp. 9) Add 10 μl 2.6 nM Anti-6HIS-Eu cryptate and 40 nM Anti-HA-XL665 in detection buffer. 10) Spin 1000 rpm, 2 minutes, at room temp. 11) Incubate plate for 60 minutes at room temp. 12) Read plates on Perkin Elmer Envision instrument with the following parameters:
LANCE dual laser protocol loaded into the Envision® software
Top Mirror: LANCE/DELFIA Duel/Bias (Bar code 446) Emission Filter: APC 665 EM (Bar code 205) 2nd Emission Filter: Europium 615 EM (Bar code 203) Read […] (channel 1) and 615 nm (channel 2) wavelengths on Envision®
Data Analysis: The Data can be read in CSV files. There are two tables in those CSV files, which are the values of 655 nm (channel 1) and 615 nm (channel 2) wavelengths respectively. The data is converted to an HTRF Ratio=(Channel 1/Channel 2)*10,000
The average of all the 0 uM controls (DMSO only)=BKGD (Background—0% activation). Subtract BKGD from each HTRF Ratio value=HTRF-BKGD. The average of all the […] 100 nM control activator in DMSO controls=Max (100% activation). The following equation is then used to calculate % Activation for each well/candidate as follows: % Activation=(HTRF−BKGD/Max)*100.
Graphpad Prisim was used with Transform X values: X=Log(X) and nonlinear regression (dose-response-stimulation): Log(agonist) vs Response—variable slope (four parameters) with constrains set to Bottom=0 and Top=100.
Background: Time-resolved FRET reads energy transfer from a long-lived donor to a nearby acceptor.
With `Cc1nc2c(C3CCN(C)CC3)c(C)nn2c(O)c1Cc1ccccc1` [Compound O3], the concentration for a half-maximal effect (EC50) is more than 100 µM.

On to `Cc1nn2c(O)cc(C(C)(C)C)nc2c1-c1ccc(Cl)cc1` [F], for which the EC50 was determined as 16.7 µM. In the case of `COc1ccccc1-c1c(C)nn2c(S)cc(C)nc12` [Compound D] it was more than 100 µM; in that of `Cc1nc2c(C(=O)N(C)C)c(C)nn2c(O)c1Cc1ccccc1` [EE], more than 100 µM.

For the compound `Cc1cc(C)c2c(n1)nn1c(S)cc(C)nc21` [Compound E], the EC50 is 4 µM. For `Cc1cc(S)c2ncc(-c3ccc(F)cc3)n2n1` [Compound F3] the value was 3 µM. In the case of `Cc1cc(O)n2ncc(-c3ccc(F)cc3)c2n1` [PP] it was more than 100 µM. On to `Cc1nn2c(S)c3c(nc2c1-c1ccccc1)CCOC3` [WW], for which the concentration for a half-maximal effect (EC50) worked out at 71 µM. For `Cc1nn2c(S)c(C)c(Cc3ccccc3)nc2c1-c1ccccc1` [ZZ] the value was 0.5 µM. In the case of `Cc1cc(S)n2ncc(-c3cc[nH]c(=O)c3)c2n1` [Compound A3] it was more than 100 µM. In the case of `Cc1cc(C)c2c(n1)nn1c(O)c(Cc3ccccc3)c(C)nc21` [NN] it was more than 100 µM; in that of `Cc1nc2c(-c3ccccc3)c(C)nn2c(O)c1Cc1ccncc1` [Compound X, 2,5-dimethyl-3-phenyl-6-(4-pyridylmethyl)pyrazolo[1,5-a]pyrimidin-7-ol], more than 100 µM; in that of `Cc1cc(S)n2ncc(-c3ccccc3)c2n1` [Compound C], 75.3 µM. With `Cc1nn2c(S)c3c(nc2c1-c1ccccc1)CCCC3` [Compound K], the EC50 is 3.3 µM and 3.6 µM. For `Sc1c(Cc2ccccc2)cnc2c(-c3ccccc3)cnn12` [Compound Z, 6-benzyl-3-phenyl-pyrazolo[1,5-a]pyrimidin-7-thiol] the value was 5.9 µM; for `Cc1nn2c(S)c3c(nc2c1-c1ccccc1)CN(C)CC3` [Compound C3], 27 µM; for `Cc1nn2c(S)cc(C(C)C)nc2c1-c1ccccc1` [H], more than 100 µM. For `Cc1nc2c(C3CCN(C)CC3)c(C)nn2c(S)c1Cc1ccccc1` [Compound N3] the value was more than 100 µM. In the case of `Cc1nc2c(C#N)c(C)nn2c(O)c1Cc1ccccc1` [Compound GG, 6-benzyl-7-hydroxy-2,5-dimethyl-pyrazolo-[1,5-a]pyrimidine-3-carbonitrile] it was more than 100 µM. On to `Cc1nc2c(-c3cccnc3)c(C)nn2c(O)c1Cc1ccccc1` [Compound L3], for which the EC50 was more than 100 µM.

By EC50 is commonly meant the concentration that produces a half-maximal response.
